US20240101531A1, “PYRIDINAMINE DERIVATIVES AND THEIR USE AS POTASSIUM CHANNEL MODULATORS” (Xenon Pharmaceuticals Inc., priority 2022, published 2024)
Counter-ions that a name gives are not always drawn.

Target: human KV7.2/KV7.3 (Homo sapiens (Human), UniProt O43525+O43526)
Test: Potassium flux assay (IPG-2 AM dye)
Type: cell-based
Settings: TREX HEK 293 or HEK 293 cells expressing human KV7.2/KV7.3; arithmetic mean values
How it was run: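 EC50 from 16 concentrations (2-fold dilutions, top 30 μM), scaled between DMSO baseline and a known KV7.x modulator maximum. Signal is IPG-2 AM fluorescence (ex 530/em 558 nm) after 10 mM KCl challenge buffer addition, following 20 min room-temperature compound exposure of HEK 293 or TREX HEK 293 cells stably expressing human KV7.2/KV7.3.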

| SMILES | EC50 [nM] |
| --- | --- |
| O=S1(=O)CC[C@H](Oc2ccc3c(Nc4ccc(Cl)nc4)nccc3c2)C1 [Example 262, (S)-3-((1-((6-chloropyridin-3-yl)amino)isoquinolin-6-yl)oxy)tetrahydrothiophene 1,1-dioxide] | 1000 to 10000 |
| CC1(COc2cnc3c(Nc4ccc(Cl)nc4)nccc3c2)COC1 [Example 259, N-(6-chloropyridin-3-yl)-3-((3-methyloxetan-3-yl)methoxy)-1,7-naphthyridin-8-amine] | 1000 to 10000 |
| COc1ccc2c(Nc3ccc(Cl)nc3)ncc(OC)c2c1 [Example 410, N-(6-chloropyridin-3-yl)-4,6-dimethoxyisoquinolin-1-amine] | 10000 to 30000 |
| Cc1ncc(Nc2nccc3cc(OC(C)c4cnn(C)c4)ccc23)cn1 (centres unmarked) [Example 169, 6-(1-(1-methyl-1H-pyrazol-4-yl)ethoxy)-N-(2-methylpyrimidin-5-yl)isoquinolin-1-amine] | 1000 to 10000 |
| Clc1ccc(Nc2nccc3cc(OC[C@@H]4CCN(Cc5ccccc5)C4)ccc23)cn1 [Example 283, (R)-6-((1-benzylpyrrolidin-3-yl)methoxy)-N-(6-chloropyridin-3-yl)isoquinolin-1-amine] | 1000 to 10000 |
| Cc1ncc(Nc2nccc3cc(OCC4CC4)ccc23)cn1 [Example 24, 6-(cyclopropylmethoxy)-N-(2-methylpyrimidin-5-yl)isoquinolin-1-amine] | 1000 to 10000 |
| O[C@H]1CCC[C@@H](Oc2ccc3c(Nc4ccc(Cl)nc4)nccc3c2)C1 [Example 347, (1 S,3R)-3-((1-((6-chloropyridin-3-yl)amino)isoquinolin-6-yl)oxy)cyclohexan-1-ol] | < 1000 |
| NC(=O)C1(COc2ccc3c(Nc4cnc(Cl)nc4)nccc3c2)CC1 [Example 361, 1-(((1-((2-chloropyrimidin-5-yl)amino)isoquinolin-6-yl)oxy)methyl)cyclopropane-1-carboxamide] | < 1000 |
| FC(F)Oc1ccc2c(Nc3ccc(Cl)nc3)nccc2c1 [Example 7, N-(6-chloropyridin-3-yl)-6-(difluoromethoxy)isoquinolin-1-amine] | 1000 to 10000 |
| COc1ncc(Nc2nccc3cc(OCc4cn[nH]c4C)ccc23)cn1 [Example 388, N-(2-methoxypyrimidin-5-yl)-6-((5-methyl-1H-pyrazol-4-yl)methoxy)isoquinolin-1-amine] | < 1000 |
| C[C@H]1COCCN1CCOc1ccc2c(Nc3ccc(Cl)nc3)nccc2c1 [Example 321, (S)-N-(6-chloropyridin-3-yl)-6-(2-(3-methylmorpholino)ethoxy)isoquinolin-1-amine] | 1000 to 10000 |
| Clc1ccc(Nc2nccc3cc[nH]c23)cn1 [Example 14, N-(6-chloropyridin-3-yl)-1H-pyrrolo[2,3-c]pyridin-7-amine] | 1000 to 10000 |
| FC1(COc2ccc3c(Nc4ccc(Cl)nc4)nccc3c2)CCOC1 (stereo in doubt) [Example 364, (R)—N-(6-chloropyridin-3-yl)-6-((3-fluorotetrahydrofuran-3-yl)methoxy)isoquinolin-1-amine] | < 1000 |
| N#CC1(COc2ccc3c(Nc4ccc(Cl)nc4)nccc3c2)CCOC1 (stereo in doubt) [Example 125, (R)-3-(((1-((6-chloropyridin-3-yl)amino)isoquinolin-6-yl)oxy)methyl)tetrahydrofuran-3-carbonitrile] | < 1000 |
| Clc1ncc(Nc2nccc3cc(OCCc4cn[nH]c4)ccc23)cn1 [Example 390, 6-(2-(1H-pyrazol-4-yl)ethoxy)-N-(2-chloropyrimidin-5-yl)isoquinolin-1-amine formate] | < 1000 |
| C[C@@H]1CN(CCOc2ccc3c(Nc4ccc(Cl)nc4)nccc3c2)C[C@H](C)O1 [Example 319, N-(6-chloropyridin-3-yl)-6-(2-((2S,6R)-2,6-dimethylmorpholino)ethoxy)isoquinolin-1-amine] | 1000 to 10000 |
| COC(=O)c1ccc2c(Nc3ccc(Cl)nc3)nccc2c1 [Example 10, methyl 1-((6-chloropyridin-3-yl)amino)isoquinoline-6-carboxylate] | 10000 to 30000 |
